According to patent US7052910B2, “Skeletal cell model to screen anti-diabetic compounds” (Council of Scientific and Industrial Research, priority 2001, dated 2006):

What was measured:
IR-β = test: Tyrosine phosphorylation and expression of IR-β in C2C12 myotubes differentiated in serum free medium without (MF) or with chronic insulin (MFI); immunoprecipitation and immunoblot; assay type: cell-based, mouse
Experimental: (§1) FIG. 5 represents the effect of insulin stimulation on control and chronically insulin-differentiated cells: Cells were stimulated with 100 nm of insulin for 5 min. Cell lysates were run on sodium dodecyl sulphate-7%-polyacrylamide gel electrophoresis (SDS-7%-PAGE) and were immunoblotted with antiphosphotyrosine antibody (A) or anti-IRS-1 antibody (C) or anti-IR-β antibody (E). Cell lysates were immunoprecipitated with antibodies to IRS-1 (B) or IR-β (D) and immunoblotted (IB) with antiphosphotyrosine antibody; and FIG. 6 represents the effect of pioglitazone on tyrosine phosphorylation of IRS-1 and IR-β: Pioglitazone was added at 50 μM concentration during the last day of differentiation for 24 hr. Then, the cells were stimulated with 100 nm of insulin for 5 min. Cell lysate were immunoblotted (IB) with antiphosphotyrosine antibody (A) or α-IRS-1 (B). Cell lysates of the samples prepared the same immunoprecipitated (IP) with antibodies and immunoblotted (IB) with antiphosphotyrosine (C) or anti-IR-β (D) antibodies. C2C12 cells were grown in DMEM (Dulbecco's Modified Eagle Medium) containing 15% FCS (fetal calf serum). The cells were differentiated in serum free medium in the absence or chronic presence of 100 nm insulin. After three days the differentiation was complete. […]

IRS-1 = test: Tyrosine phosphorylation and expression of IRS-1 in C2C12 myotubes differentiated in serum free medium without (MF) or with chronic insulin (MFI); immunoblot; assay type: cell-based, mouse
Experimental: as §1

## insulin
IR-β; C2C12 cells differentiated in chronic presence of 100 nm insulin, FIG. 5E
  expression of IR-β: reduced
IR-β; MFI (chronic 100 nm insulin) versus MF differentiated C2C12 cells, FIG. 5D
  tyrosine phosphorylation levels of IR: Severe reduction
IRS-1; C2C12 cells differentiated in chronic presence of 100 nm insulin (MFI), FIG. 5B
  ability of IRS-1 to undergo tyrosine phosphorylation in response to insulin: impaired
IRS-1; control (MF) C2C12 myotubes stimulated with 100 nm insulin for 5 min, FIG. 5A
  tyrosine phosphorylation of IRS-1 (Mr 160–170 kDa protein): insulin stimulated tyrosine phosphorylation
